Assay results as given in patent US20060025394A1, “Estradiol-related compounds and methods of use as anti-tumor agents” (priority 2003, published 2006).

Tests used:
[1] = tested on: MCF-7; experiment: Cytotoxicity testing (Example 7), MTS, MCF-7; type: cell-based
Description: (§1) Cytotoxicity Studies were done in DU-145 and MCF-7 Cells. […] We set out to test the efficacy of these compounds based on known affinities for ER-α previously reported. Cells were treated for five days with 1 mM of each compound in a defined media. Cell number was estimated by the MTS method. Similar studies were carried out in the MCF-7 cell line known to express both ER-α and -β, and display proliferative properties in the presence of classic estrogens.

[2] = tested on: DU-145; experiment: Cytotoxicity testing (Example 7), MTS, DU-145; type: cell-based; conditions: for DU145 % Cell#: five days, MTS
Description: as §1

[3] = tested on: NCR nude mice; conditions: 5 to 40 mg/kg/day bolus IM injection, 40-day period
Description: Doses included 5 to 40 mg/kg/day bolus IM injection. Toxicity effects were gauged based on changes in animal weight and gross analysis of specific organs including liver, lung, prostate, brain, spleen, heart, and kidney, collected, and fixed in paraffin sections.

[4] = tested on: DU145, PC3, and LNCaP cell lines; experiment: MTS assay, values averaged or stated over the CaP cell lines; type: cell-based; conditions: average
Description: (§2) DU145, LNCaP, PC3, and MCF-7 cells were obtained from the American Type Culture Collection (Manassas, Va.). DU145, PC3, and MCF-7 cells were maintained in Dulbecco's modified Eagle's medium/F-12 supplemented with 5% heat inactivated Fetal Calf Serum and Penicillin/Streptomycin (Invitrogen Life Technologies, Carlsbad, Calif.). LNCaP cells were maintained in RPMI 1640 medium supplemented in the same fashion. Cells were cultured in 75 cm^2 flasks (Falcon, BD Biosciences, Bedford, Mass.) at 37° C. and 5% CO2. For the MTS assay (Example 3), five thousand cells were plated in each well of a 24 well plate (Falcon), were allowed to attach for a 48-hour period in the media described, and changed to a defined medium, (DMEM/F-12 or RPMI1640) supplemented with insulin (BD Biosciences). A 1000× solution of the compound of interest solubilized in DMSO (Sigma, Saint Louis, Mo.) was diluted in the defined media just prior to starting each experiment, and media was refreshed every 48 to 72 hours throughout the experiments.
(§3) . Upon completing five days of treatment, the medium in each well was exchanged for 400 μL of an MTS solution (3-(4,5-dimethylthiazol-2-yl)-5-(3-carboxymethoxyphenyl)-2-(4-sulfophenyl)-2H-tetrazolium, inner salt; O'Toole SA, 2003, Cancer Detect Prev., 2003;27(1):47-54) spiked into media as per the manufacture's instructions (Promega, Madison, Wis.) and incubated for 2 hours at 37° C. before reading the absorbance on the μQuant UV/VIS plate reader, in conjunction with KCjunior Software (Bio-Tek Instruments, Winooski, Vt.) set at 490 nm. All experiments were carried out in quadruplicate, control wells were treated with the carrier DMSO. E2, which is estradiol-17β (Steraloids®, Newport, R.I.) and resveratrol (Sigma) were used as controls. […]

[5] = tested on: DU145; experiment: MTS cell viability assay in DU145; type: cell-based; conditions: DU145, concentrations above 1 μM
Description: as §2, §3

[6] = Table 3, five days, 1 mM of each compound, defined media
[7] = Table 3, 1 mM of each compound, defined media
[8] = Table 4 comparative study, five days, 1 mM
[9] = Table 4 comparative study, 1 mM

| Structure (SMILES) | MCF-7 % Cell# [1, 6] [%] | DU145 % Cell# [2, 7] [%] | MCF-7 % Cell# [1, 8] [%] | DU145 % Cell# [2, 9] [%] | further results |
| --- | --- | --- | --- | --- | --- |
| CC12CCC3c4ccc(O)cc4CCC3C1CCC2(O)C=Cc1cccc(C(F)(F)F)c1 (stereo not drawn) [Compound 23] | 19 | 5 |  |  | overall result in cytotoxicity testing (Table 3) [2]: good results |
| CC12CCC3c4ccc(O)cc4CCC3C1CCC2(O)C=Cc1ccccc1C(=O)O (stereo not drawn) [Compound 24] | 61 | 103 |  |  |  |
| CC12CCC3c4ccc(O)cc4CCC3C1CCC2(O)C=Cc1ccc(C(F)(F)F)cc1 (stereo not drawn) [Compound 25] | 13 | 5 |  |  | general toxicity (animal weight, gross analysis of organs) [3]: No apparent detrimental effects; overall result in cytotoxicity testing (Table 3) [2]: good results |
| C[C@]12C[C@H](c3ccc(OCCCCCS(=O)(=O)CCCC(F)(F)C(F)(F)F)cc3)[C@@H]3c4ccc(O)cc4CC[C@H]3[C@@H]1CC[C@@H]2O [Compound 26, RU 58668, reference compound] |  |  | 37 | 73 |  |
| CC/C(=C(\c1ccccc1)c1ccc(OCCN(C)C)cc1)c1ccccc1 [Compound 27, ICI 47, 699, reference compound] |  |  | 21 | 12 |  |
| C[C@]1(O)CC[C@H]2[C@@H]3CCC4=CC(=O)CCC4=C3C=C[C@@]21C [Compound 29, RU 1881, reference compound] |  |  | 94 | 99 |  |
| CC/C(=C(\c1ccccc1)c1ccc(OCCN(C)C)cc1)c1ccccc1.O=C(O)CC(O)(CC(=O)O)C(=O)O [Compound 30, TAM Citr, reference compound] |  |  | 33 | 47 |  |
| CN(C)CCOc1ccc([C@H]2C[C@]3(C)[C@@H](O)CC[C@H]3[C@@H]3CCc4cc(O)ccc4[C@H]32)cc1 [Compound 31, RU 39411, reference compound] |  |  | 102 | 102 |  |
| C[C@]12CC[C@@H]3c4ccc(O)cc4C[C@@H](CCCCCCCCC[S+]([O-])CCCC(F)(F)C(F)(F)F)[C@H]3[C@@H]1CC[C@@H]2O (stereo partly drawn) [Compound 32, ICI-182780, reference compound] |  |  | 62 | 94 |  |
| CC/C(=C(\c1ccccc1)c1ccc(OCCN(C)C)cc1)c1ccccc1 [Compound 33, Z-TAM, reference compound] |  |  | 25 | 56 |  |
| COc1ccc2c(c1)CCC(c1ccccc1)=C2c1ccc(OCCN2CCCC2)cc1.Cl [Compound 34, 4-11, 100A, reference compound] |  |  | 32 | 29 |  |
| C#C[C@]1(O)CC[C@H]2[C@@H]3CCC4=Cc5oncc5C[C@]4(C)[C@H]3CC[C@@]21C [Compound 35, Danazol, reference compound] |  |  | 107 | 92 |  |
| C#C[C@]1(O)CC[C@H]2[C@@H]3CCc4cc(O)ccc4[C@H]3[C@H](OC)C[C@@]21C [Compound 37, RU16117, reference compound] |  |  | 103 | 101 |  |
| CC12CCC3c4ccc(O)cc4CCC3C1CCC2(O)C=Cc1ccc([N+](=O)[O-])cc1 (stereo not drawn) [Compound 46] | 35 | 44 |  |  |  |
| CC12CCC3c4ccc(O)cc4CCC3C1CCC2(O)C=Cc1ccccc1 (stereo not drawn) [Compound 48] | 27 | 47 |  |  |  |
| CC12CCC3c4ccc(O)cc4CCC3C1CCC2(O)C=Cc1ccccc1[N+](=O)[O-] (stereo not drawn) [Compound 49] | 29 | 17 |  |  |  |
| C[C@]12CC[C@@H]3c4ccc(O)cc4CC[C@H]3[C@@H]1CC[C@@H]2O [Compound E2, estradiol-17β, reference compound] | 90 | 100 | 90 | 100 | difference in cell number over non-treated cells ([4]; negative control): 0±3.4%; cytotoxic or proliferative effects [5]: no apparent cytotoxic or proliferative effects |
| Oc1ccc(C=Cc2cc(O)cc(O)c2)cc1 [resveratrol] |  |  |  |  | decrease in cell number ([4]; positive control): 65±5.3% |
